6 substances from patent US10954513B2, “RNA-guided transcriptional regulation and methods of using the same for the treatment of back pain” (UNIVERSITY OF UTAH RESEARCH FOUNDATION, priority 2015, dated 2021) can be followed below.

The subject of one series is IL1R1. As to the kind of experiment: Guide RNA screening in HEK293T cells (qPCR), IL1R1. The series is classed as cell-based, human. Particulars: HEK293T cells expressing dCas9-KRAB, 48 hours post transfection, relative to non-target gRNA. From the text:
(§1) Using the UCSC genome browser (GRCh37/hg19), the 5-UTR and the promoter region, 1000 base pairs upstream were selected and input into the CRISPR design tool (crispr.mit.edu). This tool outputs 20 bp gRNAs that are followed on their 3′ end by the PAM sequence NGG, which is specific to the CRISPR-Cas9 system derived from Streptococcus pyogenes. Additionally, the CRISPR design tool scores the potential gRNA sequences based on the number of off-target sites they have and how many are within genes (e.g., higher score means less off-target sites). […]
(§2) Total RNA was harvested from cells using Purelink RNA mini kit (Ambion). […] Changes in gene expression were expressed as fold changes in mRNA expression relative to the nontarget control, and normalized to GAPDH mRNA expression, using the ΔΔCt method.
(§3) HEK293T cells stably expressing dCas9-KRAB GFP were seeded in 6-well plates at a density of 600,000 cells/well in DMEM-HG with 10% FBS. […] Subsequently each sample was then run through taqman qPCR using primers for TNFRSF1A or IL1R1 and housekeeping gene GAPDH to quantify downregulation of each gene by each guide. Gene downregulation was quantified using the ΔΔCt method to characterize fold change relative non-target gRNA expressing cells.

The target of the next series is human IL-6 (human) (UniProt P05231). Put plainly: cell-based or functional assay.
The next series addresses AKAP 150 (rat) (UniProt P24587). As to the kind of experiment: cell-based or functional assay.
The test system of series [1] is TNFR1. Put plainly: Guide RNA screening in HEK293T cells (qPCR), TNFR1. Particulars: HEK293T cells expressing dCas9-KRAB, 48 hours post transfection, relative to non-target gRNA. The series is classed as cell-based, human.
Excerpt: as §1, §2, §3

Series [2] concerns NF-κB activity in HEK293T cells. As to the kind of experiment: NF-κB activity assay in HEK293T cells dosed with TNF-α. The series is classed as cell-based, human. The protocol: HEK293T cells and hADMSCs were transduced with the earlier mentioned NF-κB reporter vector and analyzed for changes in NF-κB activity in response to dosing cells with TNF-α/IL-1β (RnD systems, ProSpec). To further describe, cells expressing the NF-κB reporter were plated in white 96-well plates (HEK293T cells at 25,000 cells/well and hADMSCs at 5000 cells/well) and allowed to attach overnight. The next day cells were dosed with the appropriate amounts of inflammatory cytokines (0, […], 1, and/or 10 ng/mL of TNF-α/IL-1β) for 24 hours. At 24 hours luminescence corresponding to NF-κB activity was measured in one set of cells using the bright glo assay (Promega) and cell number was measured on another set of cells under the same treatment using the real-time glo assay (Promega). Changes in NF-κB activity were quantified as a fold change in luminescence relative to the no dose control for each cell type, with NF-κB activity normalized to cell number.

In series [3] the test system is TNFR1. As to the kind of experiment: Human NP cell CRISPRi: TNFR1 knockdown (qRT-PCR). The series is classed as cell-based. The following applies: primary human NP cells. Here is the method:
Quantitative RT-PCR was performed to identify TNFR1 knockdown in these primary human NP cells. Additionally, flow-cytometry was performed to determine transduction efficiency in human NP cells.

Sequence of UniProt P24587 (P24587 whole entry): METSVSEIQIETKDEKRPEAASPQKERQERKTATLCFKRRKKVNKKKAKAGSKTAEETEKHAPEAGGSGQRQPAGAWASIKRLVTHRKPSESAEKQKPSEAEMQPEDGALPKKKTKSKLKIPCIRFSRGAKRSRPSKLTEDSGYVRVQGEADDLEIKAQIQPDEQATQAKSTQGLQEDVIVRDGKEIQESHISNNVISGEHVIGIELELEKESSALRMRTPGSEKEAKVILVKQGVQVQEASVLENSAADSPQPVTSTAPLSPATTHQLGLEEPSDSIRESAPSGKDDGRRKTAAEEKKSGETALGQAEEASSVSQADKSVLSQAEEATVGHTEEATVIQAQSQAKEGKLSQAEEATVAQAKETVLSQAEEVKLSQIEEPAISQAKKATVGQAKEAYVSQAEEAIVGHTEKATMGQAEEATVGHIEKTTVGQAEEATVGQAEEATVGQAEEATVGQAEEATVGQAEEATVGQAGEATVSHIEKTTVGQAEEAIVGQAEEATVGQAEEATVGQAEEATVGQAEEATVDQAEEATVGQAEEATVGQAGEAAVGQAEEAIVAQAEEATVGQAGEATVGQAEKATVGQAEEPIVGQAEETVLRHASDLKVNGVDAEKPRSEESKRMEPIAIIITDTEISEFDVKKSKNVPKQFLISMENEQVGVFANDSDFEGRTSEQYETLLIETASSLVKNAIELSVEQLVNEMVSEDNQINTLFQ
Sequence of UniProt P05231 (P05231 30-212 limits assumed): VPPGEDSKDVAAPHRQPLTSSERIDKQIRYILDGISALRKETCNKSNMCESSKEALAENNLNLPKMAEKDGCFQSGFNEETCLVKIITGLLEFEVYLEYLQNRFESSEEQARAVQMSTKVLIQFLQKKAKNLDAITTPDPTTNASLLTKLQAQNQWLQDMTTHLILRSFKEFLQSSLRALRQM

“5′-GGAGUCGCCAACUCAAUUCG-3′ (expressed or natural sequence) [gRNA 1 for IL1R1, 84]” returned an IL1R1 gene downregulation in the series with IL1R1 of 67%.
Turning to “mouse isotype control antibody (Life Technologies)”, in the series with human IL-6 (human), the T50 of neuron firing (Boltzmann fit) was 38.2 ° C and the maximum firing response of DRG neurons came out at 66%.
In the case of “AKAP inhibitor peptide St-Ht31 (Promega)”, in the series with AKAP 150 (rat), the percentage of neurons firing at 39° C. in degenerative IVD conditioned media came to 15.5%.
The same measure, in the same setting: with control peptide St-Ht31P (Promega) the figure was 61.9%.
Turning to “5′-CAGUGUUGCAACAGCGGGAC-3′ (expressed or natural sequence) [gRNA 1 for TNFR1, 79]”, in the series on TNFR1 [1], the TNFR1 gene downregulation entry was “up to 87%”. Also, in series [2] (0.15 ng/mL TNF-α), the “NF-κB activity at lowest dose” value is reported as “no significant increase in NF-κB activity”. In series [2] (24 hours of dosing with 0, 0.15, 1, and 10 ng/mL TNF-α), the “decreases in NF-κB activity” value is on record as “up to 95%”.
For the substance “5′-AUAAGCGUCCGACACAUGAU-3′ (expressed or natural sequence) [gRNA 4 for TNFR1, 82]”, the “TNFR1 knockdown in NP cells” value in the series on TNFR1 [3] (with dCas9-KRAB) is listed as 55%; with TNFR1 [3] (with dCas9 alone), “no knockdown”.
